# Reference: ChEMBL document CHEMBL5678816, “A Next-Generation TRK Kinase Inhibitor Overcomes Acquired Resistance to Prior TRK Kinase Inhibition in Patients with TRK Fusion-Positive Solid Tumors” (Cancer Discov, 2017)
# Activity calls are given as the source filed them. No cut-off for these calls is given here.
# Tests used:
# NIH3T3 = assay: In vivo inhibition of […] in nu/nu NCr mouse implanted with mouse NIH3T3 cells harboring extracellular domain deleted […] G595R mutant assessed as reduction in […] phosphorylation administered orally twice daily for 3 days and measured after 2 hrs post last dose by ELISA; format: functional; conditions: dose 10-100 mg/kg, route po, time 3.0 day
# [1] = target: Platelet-derived growth factor receptor alpha (Homo sapiens) (UniProt P16234); assay: Inhibition of PDGFRalpha (unknown origin) at 1 uM in presence of ATP relative to control; values are per cent of control
# Sequence of Platelet-derived growth factor receptor alpha (Homo sapiens) (P16234 whole entry): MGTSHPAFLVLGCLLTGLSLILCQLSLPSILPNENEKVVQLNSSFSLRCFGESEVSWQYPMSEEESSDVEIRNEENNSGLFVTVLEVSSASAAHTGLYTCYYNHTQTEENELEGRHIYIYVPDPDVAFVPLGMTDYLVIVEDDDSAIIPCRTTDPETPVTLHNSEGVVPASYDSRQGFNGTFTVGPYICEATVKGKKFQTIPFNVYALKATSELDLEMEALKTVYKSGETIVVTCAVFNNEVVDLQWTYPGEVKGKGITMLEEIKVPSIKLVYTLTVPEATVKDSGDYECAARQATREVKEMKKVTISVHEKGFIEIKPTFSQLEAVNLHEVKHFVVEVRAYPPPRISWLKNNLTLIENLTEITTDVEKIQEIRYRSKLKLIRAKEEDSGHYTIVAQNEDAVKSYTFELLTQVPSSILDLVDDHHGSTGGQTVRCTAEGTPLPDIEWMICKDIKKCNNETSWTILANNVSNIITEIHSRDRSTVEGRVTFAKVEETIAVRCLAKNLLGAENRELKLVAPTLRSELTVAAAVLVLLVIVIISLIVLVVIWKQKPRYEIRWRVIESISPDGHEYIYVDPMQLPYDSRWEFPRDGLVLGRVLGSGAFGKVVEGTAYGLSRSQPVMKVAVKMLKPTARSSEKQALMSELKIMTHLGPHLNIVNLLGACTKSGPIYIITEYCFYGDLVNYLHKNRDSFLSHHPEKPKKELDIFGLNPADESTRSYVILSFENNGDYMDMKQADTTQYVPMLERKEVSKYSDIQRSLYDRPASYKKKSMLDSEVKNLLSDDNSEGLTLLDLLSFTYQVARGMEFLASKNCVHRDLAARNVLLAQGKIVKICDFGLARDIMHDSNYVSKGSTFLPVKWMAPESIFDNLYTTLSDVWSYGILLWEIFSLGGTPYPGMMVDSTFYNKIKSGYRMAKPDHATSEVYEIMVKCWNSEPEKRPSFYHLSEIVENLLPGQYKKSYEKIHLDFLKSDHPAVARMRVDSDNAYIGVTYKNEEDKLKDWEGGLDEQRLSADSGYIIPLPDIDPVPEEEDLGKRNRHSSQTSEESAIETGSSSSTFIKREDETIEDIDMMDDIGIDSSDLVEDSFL
# [2] = target: Serine/threonine-protein kinase Chk2 (Homo sapiens) (UniProt O96017); assay: Inhibition of CHK2 (unknown origin) at 1 uM in presence of ATP relative to control; values are per cent of control
# Sequence of Serine/threonine-protein kinase Chk2 (Homo sapiens) (O96017 whole entry): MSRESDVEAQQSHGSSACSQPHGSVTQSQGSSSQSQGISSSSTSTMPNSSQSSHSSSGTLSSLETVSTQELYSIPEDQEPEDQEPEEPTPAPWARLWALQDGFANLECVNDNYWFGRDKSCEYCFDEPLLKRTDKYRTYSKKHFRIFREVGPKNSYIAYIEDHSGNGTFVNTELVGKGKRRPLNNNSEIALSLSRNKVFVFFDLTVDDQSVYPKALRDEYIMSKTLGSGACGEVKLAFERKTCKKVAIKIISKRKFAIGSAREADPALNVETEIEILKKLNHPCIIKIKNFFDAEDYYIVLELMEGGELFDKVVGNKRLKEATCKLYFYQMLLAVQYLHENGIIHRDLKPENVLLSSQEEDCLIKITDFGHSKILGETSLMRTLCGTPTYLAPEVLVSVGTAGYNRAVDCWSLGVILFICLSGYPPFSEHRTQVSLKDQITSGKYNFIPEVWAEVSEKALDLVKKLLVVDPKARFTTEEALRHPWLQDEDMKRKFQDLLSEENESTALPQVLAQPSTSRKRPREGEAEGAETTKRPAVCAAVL
# [3] = target: Dual specificity protein kinase CLK3 (Homo sapiens) (UniProt P49761); assay: Inhibition of CLK3 (unknown origin) at 1 uM in presence of ATP relative to control; values are per cent of control
# [4] = target: Serine/threonine-protein kinase MARK2 (Homo sapiens) (UniProt Q7KZI7); assay: Inhibition of MARK2 (unknown origin) at 1 uM in presence of ATP relative to control; values are per cent of control
# SK-MEL-28 = assay: Inhibition of cell proliferation in human SK-MEL-28 cells upto 10 umol/L incubated for 72 hrs by DAPI staining based analysis; format: functional; conditions: dose <= 10.0 µmol/L
# [5] = target: Serine/threonine-protein kinase Nek6 (Homo sapiens) (UniProt Q9HC98); assay: Inhibition of NEK6 (unknown origin) at 1 uM in presence of ATP relative to control; values are per cent of control
# Sequence of Serine/threonine-protein kinase Nek6 (Homo sapiens) (Q9HC98 whole entry): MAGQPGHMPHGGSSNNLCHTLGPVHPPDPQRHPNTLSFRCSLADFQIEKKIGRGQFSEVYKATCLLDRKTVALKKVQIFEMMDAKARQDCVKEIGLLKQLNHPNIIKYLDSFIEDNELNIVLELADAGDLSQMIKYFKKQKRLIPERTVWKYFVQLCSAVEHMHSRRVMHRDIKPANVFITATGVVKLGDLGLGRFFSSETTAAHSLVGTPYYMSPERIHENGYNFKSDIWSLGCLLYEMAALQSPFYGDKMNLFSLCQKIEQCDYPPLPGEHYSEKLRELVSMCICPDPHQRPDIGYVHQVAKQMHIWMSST
# [6] = Cmax in pediatric patient with recurrent ETV6-NTRK3-rearranged infantile fibrosarcoma at 20 mg administered twice a day as liquid formulation for 1 day by LC-MS/MS analysis; format: ADME; conditions: human, in vivo
# [7] = target: Death-associated protein kinase 3 (Homo sapiens) (UniProt O43293); assay: Inhibition of DAPK3 (unknown origin) at 1 uM in presence of ATP relative to control; values are per cent of control
# SCaBER = assay: Inhibition of cell proliferation in human SCaBER cells upto 10 umol/L incubated for 72 hrs by DAPI staining based analysis; format: functional; conditions: dose <= 10.0 µmol/L
# CAL-62 = assay: Inhibition of cell proliferation in human CAL-62 cells upto 10 umol/L incubated for 72 hrs by DAPI staining based analysis; format: functional; conditions: dose <= 10.0 µmol/L
# [8] = target: Ephrin type-A receptor 4 (Homo sapiens) (UniProt P54764); assay: Inhibition of EphA4 (unknown origin) at 1 uM in presence of ATP relative to control; values are per cent of control
# [9] = AUC in pediatric patient with recurrent ETV6-NTRK3-rearranged infantile fibrosarcoma at 20 mg administered twice a day as liquid formulation for 1 day by LC-MS/MS analysis; format: ADME; conditions: human, in vivo
# [10] = target: Insulin receptor-related protein (Homo sapiens) (UniProt P14616); assay: Inhibition of IRR (unknown origin) at 1 uM in presence of ATP relative to control; values are per cent of control
# [11] = target: Ephrin type-B receptor 4 (Homo sapiens) (UniProt P54760); assay: Inhibition of EphB4 (unknown origin) at 1 uM in presence of ATP relative to control; values are per cent of control
# Sequence of Ephrin type-B receptor 4 (Homo sapiens) (P54760 whole entry): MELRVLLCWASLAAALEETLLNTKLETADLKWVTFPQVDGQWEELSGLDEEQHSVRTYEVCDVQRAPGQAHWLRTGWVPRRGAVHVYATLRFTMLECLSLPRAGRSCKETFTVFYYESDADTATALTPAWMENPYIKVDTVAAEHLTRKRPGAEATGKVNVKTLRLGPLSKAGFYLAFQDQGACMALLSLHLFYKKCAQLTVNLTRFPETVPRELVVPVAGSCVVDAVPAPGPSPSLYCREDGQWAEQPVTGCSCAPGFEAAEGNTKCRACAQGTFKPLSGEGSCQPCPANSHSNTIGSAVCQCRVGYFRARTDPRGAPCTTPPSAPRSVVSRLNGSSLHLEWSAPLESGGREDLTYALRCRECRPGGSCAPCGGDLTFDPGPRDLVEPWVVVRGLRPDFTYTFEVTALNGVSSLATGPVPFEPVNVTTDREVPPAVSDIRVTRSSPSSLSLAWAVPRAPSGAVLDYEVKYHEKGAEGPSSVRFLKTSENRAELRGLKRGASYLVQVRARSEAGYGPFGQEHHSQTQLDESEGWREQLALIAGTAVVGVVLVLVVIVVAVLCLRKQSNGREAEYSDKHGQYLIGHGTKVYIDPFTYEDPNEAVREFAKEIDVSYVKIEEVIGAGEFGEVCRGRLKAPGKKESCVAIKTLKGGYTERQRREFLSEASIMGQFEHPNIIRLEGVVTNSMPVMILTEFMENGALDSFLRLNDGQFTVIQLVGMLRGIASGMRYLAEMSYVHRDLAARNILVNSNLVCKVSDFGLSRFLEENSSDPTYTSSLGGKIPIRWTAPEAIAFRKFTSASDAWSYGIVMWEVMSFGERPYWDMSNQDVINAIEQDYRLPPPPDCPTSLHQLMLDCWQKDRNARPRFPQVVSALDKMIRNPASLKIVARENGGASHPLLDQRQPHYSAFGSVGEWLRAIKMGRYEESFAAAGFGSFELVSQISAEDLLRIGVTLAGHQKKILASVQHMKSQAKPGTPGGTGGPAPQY
# CHL-1 = assay: Inhibition of cell proliferation in human CHL-1 cells upto 10 umol/L incubated for 72 hrs by DAPI staining based analysis; format: functional; conditions: dose <= 10.0 µmol/L
# MCF7 = assay: Inhibition of cell proliferation in human MCF7 cells upto 10 umol/L incubated for 72 hrs by DAPI staining based analysis; format: functional; conditions: dose <= 10.0 µmol/L
# [12] = AUC in adult patient with recurrent LMNA-NTRK1 rearranged colorectal cancer at 100 mg administered twice a day as powder-in-capsule or liquid formulation for 15 day by LC-MS/MS analysis; format: ADME; conditions: human, in vivo, po
# [13] = target: Tyrosine-protein kinase FRK (Homo sapiens) (UniProt P42685); assay: Inhibition of PTK5 (unknown origin) at 1 uM in presence of ATP relative to control; values are per cent of control
# [14] = Cmin in pediatric patient with recurrent ETV6-NTRK3-rearranged infantile fibrosarcoma at 60 mg administered twice a day as liquid formulation for 8 day and measured 12 hrs post dose by LC-MS/MS analysis; format: ADME; conditions: human, in vivo, read-out: Cmin
# [15] = target: Serine/threonine-protein kinase NLK (Homo sapiens) (UniProt Q9UBE8); assay: Inhibition of NLK (unknown origin) at 1 uM in presence of ATP relative to control; values are per cent of control
# Sequence of Serine/threonine-protein kinase NLK (Homo sapiens) (Q9UBE8 whole entry): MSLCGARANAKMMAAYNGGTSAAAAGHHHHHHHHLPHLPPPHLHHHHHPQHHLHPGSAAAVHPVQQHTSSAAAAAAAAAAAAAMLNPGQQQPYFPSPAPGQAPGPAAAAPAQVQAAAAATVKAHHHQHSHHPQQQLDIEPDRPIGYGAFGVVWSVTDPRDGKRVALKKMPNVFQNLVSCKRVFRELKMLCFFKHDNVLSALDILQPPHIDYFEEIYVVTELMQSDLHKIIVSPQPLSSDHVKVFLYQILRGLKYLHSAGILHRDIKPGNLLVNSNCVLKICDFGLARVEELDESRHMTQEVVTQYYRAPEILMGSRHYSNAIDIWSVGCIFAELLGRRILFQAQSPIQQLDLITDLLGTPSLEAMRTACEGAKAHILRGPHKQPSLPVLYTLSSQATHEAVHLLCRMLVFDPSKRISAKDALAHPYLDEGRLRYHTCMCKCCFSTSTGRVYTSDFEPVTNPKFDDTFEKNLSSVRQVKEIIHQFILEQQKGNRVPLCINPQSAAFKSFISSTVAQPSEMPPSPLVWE
# [16] = target: Tyrosine-protein kinase Fyn (Homo sapiens) (UniProt P06241); assay: Inhibition of Fyn (unknown origin) at 1 uM in presence of ATP relative to control; values are per cent of control
# [17] = target: Mitogen-activated protein kinase 13 (Homo sapiens) (UniProt O15264); assay: Inhibition of […] (unknown origin) at 1 uM in presence of ATP relative to control; values are per cent of control
# [18] = target: cAMP-dependent protein kinase catalytic subunit PRKX (Homo sapiens) (UniProt P51817); assay: Inhibition of PrKX (unknown origin) at 1 uM in presence of ATP relative to control; values are per cent of control
# Sequence of cAMP-dependent protein kinase catalytic subunit PRKX (Homo sapiens) (P51817 whole entry): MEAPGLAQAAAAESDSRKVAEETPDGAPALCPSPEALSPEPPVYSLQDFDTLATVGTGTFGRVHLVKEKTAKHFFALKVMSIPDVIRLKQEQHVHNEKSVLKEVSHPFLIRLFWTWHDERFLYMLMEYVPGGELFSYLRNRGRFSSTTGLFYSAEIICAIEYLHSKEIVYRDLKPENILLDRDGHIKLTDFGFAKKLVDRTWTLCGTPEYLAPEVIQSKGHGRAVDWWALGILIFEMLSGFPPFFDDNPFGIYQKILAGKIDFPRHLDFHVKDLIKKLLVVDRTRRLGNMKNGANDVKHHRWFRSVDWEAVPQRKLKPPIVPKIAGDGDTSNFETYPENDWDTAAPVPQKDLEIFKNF
# BT-549 = assay: Inhibition of cell proliferation in human BT-549 cells upto 10 umol/L incubated for 72 hrs by DAPI staining based analysis; format: functional; conditions: dose <= 10.0 µmol/L
# [19] = target: Serine/threonine-protein kinase MRCK alpha (Homo sapiens) (UniProt Q5VT25); assay: Inhibition of MRCKalpha (unknown origin) at 1 uM in presence of ATP relative to control; values are per cent of control
# [20] = target: Serine/threonine-protein kinase STK11 (Homo sapiens) (UniProt Q15831); assay: Inhibition of LKB1 (unknown origin) at 1 uM in presence of ATP relative to control; values are per cent of control
# Sequence of Serine/threonine-protein kinase STK11 (Homo sapiens) (Q15831 whole entry): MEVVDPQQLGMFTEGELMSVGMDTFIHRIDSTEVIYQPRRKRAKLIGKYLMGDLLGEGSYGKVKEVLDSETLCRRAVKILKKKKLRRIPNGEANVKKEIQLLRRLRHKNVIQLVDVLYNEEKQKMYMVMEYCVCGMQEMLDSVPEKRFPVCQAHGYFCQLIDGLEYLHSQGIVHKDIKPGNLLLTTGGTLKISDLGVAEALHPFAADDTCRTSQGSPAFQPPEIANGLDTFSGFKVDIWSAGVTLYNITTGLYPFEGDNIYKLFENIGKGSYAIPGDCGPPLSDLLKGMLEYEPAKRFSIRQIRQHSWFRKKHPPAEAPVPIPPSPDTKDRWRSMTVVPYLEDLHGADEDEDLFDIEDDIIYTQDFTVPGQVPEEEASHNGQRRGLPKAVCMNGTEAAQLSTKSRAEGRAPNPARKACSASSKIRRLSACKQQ
# [21] = target: Tyrosine-protein kinase TXK (Homo sapiens) (UniProt P42681); assay: Inhibition of Txk (unknown origin) at 1 uM in presence of ATP relative to control
# Sequence of Tyrosine-protein kinase TXK (Homo sapiens) (P42681 whole entry): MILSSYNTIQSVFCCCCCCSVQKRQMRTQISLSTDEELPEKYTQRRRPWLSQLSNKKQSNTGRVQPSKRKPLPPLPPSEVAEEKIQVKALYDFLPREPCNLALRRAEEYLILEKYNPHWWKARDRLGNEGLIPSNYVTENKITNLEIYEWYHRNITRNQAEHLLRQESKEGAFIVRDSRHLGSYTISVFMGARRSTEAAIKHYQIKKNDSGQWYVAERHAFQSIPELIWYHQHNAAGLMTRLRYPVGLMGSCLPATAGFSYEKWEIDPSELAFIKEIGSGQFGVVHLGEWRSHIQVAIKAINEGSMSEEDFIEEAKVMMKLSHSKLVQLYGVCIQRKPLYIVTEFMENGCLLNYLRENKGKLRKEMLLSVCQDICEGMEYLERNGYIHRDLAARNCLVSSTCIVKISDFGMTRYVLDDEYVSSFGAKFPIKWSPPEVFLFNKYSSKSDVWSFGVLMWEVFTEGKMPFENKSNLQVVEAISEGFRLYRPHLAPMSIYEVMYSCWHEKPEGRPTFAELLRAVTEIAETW
# J82 = assay: Inhibition of cell proliferation in human J82 cells upto 10 umol/L incubated for 72 hrs by DAPI staining based analysis; format: functional; conditions: dose <= 10.0 µmol/L
smiles,measurement,setting,value
C[C@@H]1CCc2ncc(F)cc2[C@H]2CCCN2c2ccn3ncc(c3n2)C(=O)N1 [SELITRECTINIB],inhibition,NIH3T3,Dose-Dependent Effect
same,residual activity,[1],104%
same,residual activity,[2],99.5%
same,residual activity,[3],104%
same,residual activity,[4],107%
same,inhibition,SK-MEL-28,inactive
same,residual activity,[5],116%
same,Cmax,[6],143 ng/mL
same,residual activity,[7],120%
same,inhibition,SCaBER,inactive
same,inhibition,CAL-62,inactive
same,residual activity,[8],102%
same,AUC at 24 h,[9],615 ng·h/mL
same,residual activity,[10],111%
same,residual activity,[11],116%
same,inhibition,CHL-1,inactive
same,inhibition,MCF7,inactive
same,AUC at 360 h,[12],2620 ng·h/mL
same,residual activity,[13],87.5%
same,concentration at 204 h,[14],< 1 ng/mL
same,residual activity,[15],110%
same,residual activity,[16],90.5%
same,residual activity,[17],110%
same,residual activity,[18],118%
same,inhibition,BT-549,inactive
same,residual activity,[19],138%
same,residual activity,[20],108%
same,inhibition,[21],14%
same,inhibition,J82,inactive
